System: 695427-040-R-J1-PDC complex spheroid viability
Assay: Anticancer human tumor 695427-040-R-J1-PDC patient-derived colon adenocarcinoma cell line growth inhibition [RAS]
Details: for IC50: curve of first compound; for viability, T/C: stronger effect = lower value
Method in brief: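 Agents were tested in combination matrices in half-log decrements from a top concentration at or near clinical Cmax (10 microM if undetermined). Targets were multi-cell spheroids of tumour lines plus HUVEC and MSC stromal cells.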

[1] = second compound 0.000949 µM, first compound 0.0316 µM
[2] = second compound 0.000949 µM, first compound 0.1 µM
[3] = second compound 0.000949 µM, first compound 0.316 µM
[4] = second compound 0.000949 µM, first compound 1 µM
[5] = second compound 0.003 µM, first compound 0.0316 µM
[6] = second compound 0.003 µM, first compound 0.1 µM
[7] = second compound 0.003 µM, first compound 0.316 µM
[8] = second compound 0.003 µM, first compound 1 µM
[9] = second compound 0.00949 µM, first compound 0.0316 µM
[10] = second compound 0.00949 µM, first compound 0.1 µM
[11] = second compound 0.00949 µM, first compound 0.316 µM
[12] = second compound 0.00949 µM, first compound 1 µM
[13] = second compound 0.03 µM, first compound 0.0316 µM
[14] = second compound 0.03 µM, first compound 0.1 µM
[15] = second compound 0.03 µM, first compound 0.316 µM
[16] = second compound 0.03 µM, first compound 1 µM
[17] = second compound 0.0949 µM, first compound 0.0316 µM
[18] = second compound 0.0949 µM, first compound 0.1 µM
[19] = second compound 0.0949 µM, first compound 0.316 µM
[20] = second compound 0.0949 µM, first compound 1 µM
[21] = second compound 0.3 µM, first compound 0.0316 µM
[22] = second compound 0.3 µM, first compound 0.1 µM
[23] = second compound 0.3 µM, first compound 0.316 µM
[24] = second compound 0.3 µM, first compound 1 µM
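Also: viability read after seven days of drug exposure.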
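For viability, T/C in this document: 100% = DMSO vehicle control viability.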

In the case of `CC(=O)OC12COC1CC(O)C1(C)C(=O)C(O)C3=C(C)C(OC(=O)C(O)C(NC(=O)OC(C)(C)C)c4ccccc4)CC(O)(C(OC(=O)c4ccccc4)C21)C3(C)C` (stereo unspecified) + CCn1c(-c2cc(N3CCN(C)CC3)cnc2C(C)OC)c2c3cc(ccc31)-c1csc(n1)CC(NC(=O)C1CC1C)C(=O)N1CCCC(N1)C(=O)OCC(C)(C)C2, the IC50 (second compound 0.000949 µM) is reported as greater than 10 µM, the IC50 (second compound 0.003 µM) is reported as greater than 10 µM and the IC50 (second compound 0.00949 µM) is reported as 0.292 µM. It also gave an IC50 (second compound 0.03 µM) of 0.0363 µM, an IC50 (second compound 0.0949 µM) of less than 0.0316 µM and an IC50 (second compound 0.3 µM) of less than 0.0316 µM. The viability, T/C [1] was 78.2%, the viability, T/C [2] was 73.5% and the viability, T/C [3] was 68.7%. For the same compound, the viability, T/C [4] was 57.2%, the viability, T/C (second compound 0.000949 µM, first compound 3.16 µM) was 73.5% and the viability, T/C (second compound 0.000949 µM, first compound 10 µM) was 52.7%. It also gave a viability, T/C [5] of 81.4%, a viability, T/C [6] of 70.2% and a viability, T/C [7] of 59.7%. The viability, T/C [8] was 60.6%, the viability, T/C (second compound 0.003 µM, first compound 3.16 µM) was 56.5% and the viability, T/C (second compound 0.003 µM, first compound 10 µM) was 65.4%. The viability, T/C [9] was 75.3%, the viability, T/C [10] was 53.5% and the viability, T/C [11] was 52.1%. It also gave a viability, T/C [12] of 44.7%, a viability, T/C (second compound 0.00949 µM, first compound 3.16 µM) of 49.7% and a viability, T/C (second compound 0.00949 µM, first compound 10 µM) of 34.3%. For the same compound, the viability, T/C [13] was 58.1%, the viability, T/C [14] was 38.6% and the viability, T/C [15] was 42.1%. The viability, T/C [16] was 44.8%, the viability, T/C (second compound 0.03 µM, first compound 3.16 µM) was 42.9% and the viability, T/C (second compound 0.03 µM, first compound 10 µM) was 36.3%. It also gave a viability, T/C [17] of 36.5%, a viability, T/C [18] of 36.6% and a viability, T/C [19] of 36.4%. For the same compound, the viability, T/C [20] was 33.3%, the viability, T/C (second compound 0.0949 µM, first compound 3.16 µM) was 32.4% and the viability, T/C (second compound 0.0949 µM, first compound 10 µM) was 29.6%. For the same compound, the viability, T/C [21] was 35.2%, the viability, T/C [22] was 28.4% and the viability, T/C [23] was 33.9%. It also gave a viability, T/C [24] of 26.9%, a viability, T/C (second compound 0.3 µM, first compound 3.16 µM) of 30.9% and a viability, T/C (second compound 0.3 µM, first compound 10 µM) of 27.1%.

Compound `CCc1c2c(nc3ccc(O)cc13)-c1cc3c(c(=O)n1C2)COC(=O)[C@]3(O)CC` + CCn1c(-c2cc(N3CCN(C)CC3)cnc2C(C)OC)c2c3cc(ccc31)-c1csc(n1)CC(NC(=O)C1CC1C)C(=O)N1CCCC(N1)C(=O)OCC(C)(C)C2 has an IC50 (second compound 0.000949 µM) of 0.107 µM, an IC50 (second compound 0.003 µM) of 0.0732 µM and an IC50 (second compound 0.00949 µM) of 0.0568 µM. The IC50 (second compound 0.03 µM) was 0.00769 µM, the IC50 (second compound 0.0949 µM) was less than 0.000949 µM and the IC50 (second compound 0.3 µM) was less than 0.000949 µM. It also gave a viability, T/C (second compound 0.000949 µM, first compound 0.000949 µM) of 88.8%, a viability, T/C (second compound 0.000949 µM, first compound 0.003 µM) of 87% and a viability, T/C (second compound 0.000949 µM, first compound 0.00949 µM) of 75.6%. For the same compound, the viability, T/C (second compound 0.000949 µM, first compound 0.03 µM) was 61.8%, the viability, T/C (second compound 0.000949 µM, first compound 0.0949 µM) was 55.4% and the viability, T/C (second compound 0.000949 µM, first compound 0.3 µM) was 33.7%. It also gave a viability, T/C (second compound 0.003 µM, first compound 0.000949 µM) of 103%, a viability, T/C (second compound 0.003 µM, first compound 0.003 µM) of 86.1% and a viability, T/C (second compound 0.003 µM, first compound 0.00949 µM) of 66%. For the same compound, the viability, T/C (second compound 0.003 µM, first compound 0.03 µM) was 63.6%, the viability, T/C (second compound 0.003 µM, first compound 0.0949 µM) was 48% and the viability, T/C (second compound 0.003 µM, first compound 0.3 µM) was 36.3%. It also gave a viability, T/C (second compound 0.00949 µM, first compound 0.000949 µM) of 82.3%, a viability, T/C (second compound 0.00949 µM, first compound 0.003 µM) of 64% and a viability, T/C (second compound 0.00949 µM, first compound 0.00949 µM) of 65%. For the same compound, the viability, T/C (second compound 0.00949 µM, first compound 0.03 µM) was 57.8%, the viability, T/C (second compound 0.00949 µM, first compound 0.0949 µM) was 50% and the viability, T/C (second compound 0.00949 µM, first compound 0.3 µM) was 26.6%. For the same compound, the viability, T/C (second compound 0.03 µM, first compound 0.000949 µM) was 59.2%, the viability, T/C (second compound 0.03 µM, first compound 0.003 µM) was 51.6% and the viability, T/C (second compound 0.03 µM, first compound 0.00949 µM) was 55.3%. The viability, T/C (second compound 0.03 µM, first compound 0.03 µM) was 35.3%, the viability, T/C (second compound 0.03 µM, first compound 0.0949 µM) was 41.6% and the viability, T/C (second compound 0.03 µM, first compound 0.3 µM) was 27.9%. The viability, T/C (second compound 0.0949 µM, first compound 0.000949 µM) was 45.2%, the viability, T/C (second compound 0.0949 µM, first compound 0.003 µM) was 41.7% and the viability, T/C (second compound 0.0949 µM, first compound 0.00949 µM) was 46.7%. It also gave a viability, T/C (second compound 0.0949 µM, first compound 0.03 µM) of 31.8%, a viability, T/C (second compound 0.0949 µM, first compound 0.0949 µM) of 30.7% and a viability, T/C (second compound 0.0949 µM, first compound 0.3 µM) of 20.5%. It also gave a viability, T/C (second compound 0.3 µM, first compound 0.000949 µM) of 38.1%, a viability, T/C (second compound 0.3 µM, first compound 0.003 µM) of 37.6% and a viability, T/C (second compound 0.3 µM, first compound 0.00949 µM) of 28.2%. It also gave a viability, T/C (second compound 0.3 µM, first compound 0.03 µM) of 30.8%, a viability, T/C (second compound 0.3 µM, first compound 0.0949 µM) of 23.8% and a viability, T/C (second compound 0.3 µM, first compound 0.3 µM) of 16.9%.

Compound `Nc1ccn(C2OC(CO)C(O)C2(F)F)c(=O)n1` (stereo unspecified) + CCn1c(-c2cc(N3CCN(C)CC3)cnc2C(C)OC)c2c3cc(ccc31)-c1csc(n1)CC(NC(=O)C1CC1C)C(=O)N1CCCC(N1)C(=O)OCC(C)(C)C2 has an IC50 (second compound 0.000949 µM) greater than 1 µM, an IC50 (second compound 0.003 µM) of 0.524 µM and an IC50 (second compound 0.00949 µM) of 0.593 µM. It also gave an IC50 (second compound 0.03 µM) of 0.112 µM, an IC50 (second compound 0.0949 µM) of less than 0.00316 µM and an IC50 (second compound 0.3 µM) of less than 0.00316 µM. The viability, T/C (second compound 0.000949 µM, first compound 0.00316 µM) was 69.9%, the viability, T/C (second compound 0.000949 µM, first compound 0.01 µM) was 97.5% and the viability, T/C [1] was 81.8%. The viability, T/C [2] was 69.3%, the viability, T/C [3] was 67% and the viability, T/C [4] was 54.2%. The viability, T/C (second compound 0.003 µM, first compound 0.00316 µM) was 109%, the viability, T/C (second compound 0.003 µM, first compound 0.01 µM) was 88.6% and the viability, T/C [5] was 78.5%. For the same compound, the viability, T/C [6] was 66.2%, the viability, T/C [7] was 54.5% and the viability, T/C [8] was 44.2%. It also gave a viability, T/C (second compound 0.00949 µM, first compound 0.00316 µM) of 80%, a viability, T/C (second compound 0.00949 µM, first compound 0.01 µM) of 77.7% and a viability, T/C [9] of 60.9%. For the same compound, the viability, T/C [10] was 58.5%, the viability, T/C [11] was 57.5% and the viability, T/C [12] was 45.3%. For the same compound, the viability, T/C (second compound 0.03 µM, first compound 0.00316 µM) was 56.4%, the viability, T/C (second compound 0.03 µM, first compound 0.01 µM) was 63.1% and the viability, T/C [13] was 52.2%. The viability, T/C [14] was 47.1%, the viability, T/C [15] was 48.4% and the viability, T/C [16] was 37.5%. The viability, T/C (second compound 0.0949 µM, first compound 0.00316 µM) was 42.4%, the viability, T/C (second compound 0.0949 µM, first compound 0.01 µM) was 47.1% and the viability, T/C [17] was 40.6%. The viability, T/C [18] was 36%, the viability, T/C [19] was 25.7% and the viability, T/C [20] was 30.1%. For the same compound, the viability, T/C (second compound 0.3 µM, first compound 0.00316 µM) was 34.5%, the viability, T/C (second compound 0.3 µM, first compound 0.01 µM) was 40.1% and the viability, T/C [21] was 34.8%. For the same compound, the viability, T/C [22] was 33.1%, the viability, T/C [23] was 31.6% and the viability, T/C [24] was 26.5%.
